Assay results from patent US11739098B2 (BRISTOL-MYERS SQUIBB COMPANY, priority 2017, dated 2023).
pIC50: −log10 of the molar value.

What was measured:
Type in all cases: cell-based
[1] = biological target: T1, human TLR7 (Homo sapiens, UniProt Q9NYK1); assay: TLR7 inhibition reporter assay (HEK-Blue cells, SEAP reporter, gardiquimod stimulation); settings: HEK-Blue cells overexpressing human TLR7, SEAP reporter, gardiquimod 7.5 μM
T1 construct: host or cells: HEK-Blue cells (HEK293-derived reporter line)
T1 sequence (Q9NYK1 27-1049): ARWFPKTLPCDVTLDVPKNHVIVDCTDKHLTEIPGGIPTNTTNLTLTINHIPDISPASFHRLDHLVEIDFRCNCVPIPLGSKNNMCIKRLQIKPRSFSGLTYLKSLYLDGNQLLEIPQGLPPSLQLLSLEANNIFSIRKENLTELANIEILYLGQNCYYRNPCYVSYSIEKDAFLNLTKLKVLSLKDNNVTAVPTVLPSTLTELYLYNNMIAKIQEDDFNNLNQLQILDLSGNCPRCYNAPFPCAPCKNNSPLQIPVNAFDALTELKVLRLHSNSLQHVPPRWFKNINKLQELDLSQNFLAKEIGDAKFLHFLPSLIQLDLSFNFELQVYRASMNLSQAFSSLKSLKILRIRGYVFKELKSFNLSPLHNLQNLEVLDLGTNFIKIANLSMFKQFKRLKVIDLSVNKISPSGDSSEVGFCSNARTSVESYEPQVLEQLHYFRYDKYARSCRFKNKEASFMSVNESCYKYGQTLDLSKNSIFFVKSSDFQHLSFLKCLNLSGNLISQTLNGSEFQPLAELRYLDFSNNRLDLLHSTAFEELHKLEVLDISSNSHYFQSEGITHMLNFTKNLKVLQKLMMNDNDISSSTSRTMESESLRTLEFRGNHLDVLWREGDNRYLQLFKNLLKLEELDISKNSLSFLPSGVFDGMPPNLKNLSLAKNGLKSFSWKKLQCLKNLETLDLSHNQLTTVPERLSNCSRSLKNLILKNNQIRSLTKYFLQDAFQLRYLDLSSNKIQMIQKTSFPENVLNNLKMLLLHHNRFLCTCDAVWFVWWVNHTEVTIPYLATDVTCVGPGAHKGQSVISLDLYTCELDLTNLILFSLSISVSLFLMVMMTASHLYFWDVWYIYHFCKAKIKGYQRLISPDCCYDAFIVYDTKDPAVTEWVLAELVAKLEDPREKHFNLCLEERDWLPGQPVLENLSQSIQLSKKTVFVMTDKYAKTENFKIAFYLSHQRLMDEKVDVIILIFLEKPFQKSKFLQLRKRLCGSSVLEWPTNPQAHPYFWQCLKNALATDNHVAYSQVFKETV
Summary of the method: (§1)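 Read-out is SEAP activity in HEK-Blue detection medium after 22 h at 37 °C, converted to percent inhibition against agonist-plus-DMSO and reference-inhibitor controls. Cells saw compound (0.05 nM–50 μM, 30 min, room temperature) before gardiquimod 7.5 μM, R848 15.9 μM or ODN2006 5 nM for TLR7, TLR8 and TLR9, respectively.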

[2] = biological target: T2, human TLR8 (Homo sapiens, UniProt Q9NR97); assay: TLR8 inhibition reporter assay (HEK-Blue cells, SEAP reporter, R848 stimulation); settings: HEK-Blue cells overexpressing human TLR8, SEAP reporter, R848 15.9 μM
T2 construct: host or cells: HEK-Blue cells (HEK293-derived reporter line)
T2 sequence (Q9NR97 27-1041): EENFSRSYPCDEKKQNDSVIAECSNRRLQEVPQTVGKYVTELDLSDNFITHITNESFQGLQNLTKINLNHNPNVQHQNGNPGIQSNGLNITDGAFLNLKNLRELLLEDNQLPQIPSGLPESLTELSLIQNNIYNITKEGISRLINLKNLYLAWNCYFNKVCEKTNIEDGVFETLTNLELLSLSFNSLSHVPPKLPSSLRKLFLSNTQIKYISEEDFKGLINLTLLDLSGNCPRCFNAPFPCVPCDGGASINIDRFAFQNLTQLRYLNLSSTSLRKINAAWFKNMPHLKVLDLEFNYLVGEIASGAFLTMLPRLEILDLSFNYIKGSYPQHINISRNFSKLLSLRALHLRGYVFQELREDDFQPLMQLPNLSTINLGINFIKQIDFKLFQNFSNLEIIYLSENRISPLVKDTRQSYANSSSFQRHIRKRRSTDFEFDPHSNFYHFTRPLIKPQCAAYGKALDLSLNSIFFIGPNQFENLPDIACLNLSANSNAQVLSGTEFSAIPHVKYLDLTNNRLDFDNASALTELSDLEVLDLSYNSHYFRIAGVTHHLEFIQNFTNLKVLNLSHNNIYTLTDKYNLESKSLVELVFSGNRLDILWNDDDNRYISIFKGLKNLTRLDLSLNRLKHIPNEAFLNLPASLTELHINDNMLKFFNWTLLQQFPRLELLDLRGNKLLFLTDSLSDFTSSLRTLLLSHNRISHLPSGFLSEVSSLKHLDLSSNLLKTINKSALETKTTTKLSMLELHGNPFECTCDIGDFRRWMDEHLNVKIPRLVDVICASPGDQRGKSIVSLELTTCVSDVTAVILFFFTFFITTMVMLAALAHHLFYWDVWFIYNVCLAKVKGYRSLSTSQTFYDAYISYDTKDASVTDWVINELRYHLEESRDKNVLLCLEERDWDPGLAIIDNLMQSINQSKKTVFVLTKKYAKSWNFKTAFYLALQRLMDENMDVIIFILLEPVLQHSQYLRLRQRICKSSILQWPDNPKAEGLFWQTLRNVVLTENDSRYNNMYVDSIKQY
Summary of the method: as §1

[3] = biological target: T3, human TLR9 (Homo sapiens, UniProt Q9NR96); assay: TLR9 inhibition reporter assay (HEK-Blue cells, SEAP reporter, ODN2006 stimulation); settings: HEK-Blue cells overexpressing human TLR9, SEAP reporter, ODN2006 5 nM
T3 construct: host or cells: HEK-Blue cells (HEK293-derived reporter line)
T3 sequence (Q9NR96 26-1032): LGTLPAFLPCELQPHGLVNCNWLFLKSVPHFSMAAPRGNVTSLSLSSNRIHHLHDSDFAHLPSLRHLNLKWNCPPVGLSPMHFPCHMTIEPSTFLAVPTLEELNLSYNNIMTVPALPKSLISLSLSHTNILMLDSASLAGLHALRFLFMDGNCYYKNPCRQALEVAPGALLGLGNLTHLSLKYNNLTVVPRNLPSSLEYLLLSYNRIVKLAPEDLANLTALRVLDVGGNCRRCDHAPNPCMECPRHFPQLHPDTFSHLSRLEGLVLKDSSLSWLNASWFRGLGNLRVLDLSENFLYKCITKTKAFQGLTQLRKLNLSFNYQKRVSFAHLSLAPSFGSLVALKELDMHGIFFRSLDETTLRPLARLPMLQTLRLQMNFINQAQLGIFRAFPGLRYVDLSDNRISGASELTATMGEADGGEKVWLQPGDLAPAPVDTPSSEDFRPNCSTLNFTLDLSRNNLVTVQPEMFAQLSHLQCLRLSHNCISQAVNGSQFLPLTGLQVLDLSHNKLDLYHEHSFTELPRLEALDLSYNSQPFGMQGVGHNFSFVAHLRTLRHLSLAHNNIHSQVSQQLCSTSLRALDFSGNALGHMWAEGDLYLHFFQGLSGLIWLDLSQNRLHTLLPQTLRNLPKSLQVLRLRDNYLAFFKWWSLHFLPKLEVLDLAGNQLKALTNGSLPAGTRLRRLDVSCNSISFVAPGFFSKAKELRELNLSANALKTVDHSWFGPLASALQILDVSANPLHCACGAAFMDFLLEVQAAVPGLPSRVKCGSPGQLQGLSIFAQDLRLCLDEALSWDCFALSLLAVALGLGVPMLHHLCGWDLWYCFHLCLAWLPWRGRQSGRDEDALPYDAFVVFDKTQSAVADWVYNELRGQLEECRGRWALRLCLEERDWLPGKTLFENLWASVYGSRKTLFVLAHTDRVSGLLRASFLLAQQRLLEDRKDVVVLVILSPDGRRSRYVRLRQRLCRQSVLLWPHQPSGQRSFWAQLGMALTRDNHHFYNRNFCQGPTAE
Summary of the method: as §1

| pIC50 [1] | pIC50 [2] | pIC50 [3] | Compound |
| --- | --- | --- | --- |
| > 7.00 | > 7.00 | 4.30 to 6.00 | Cc1cc2nnnn2cc1-c1[nH]c2ccc(C3CCN(C4CCS(=O)(=O)CC4)CC3)cc2c1C(C)C [Example 791, 4-(4-(3-isopropyl-2-(7-methyltetrazolo[1,5-a]pyridin-6-yl)-1H-indol-5-yl)piperidin-1-yl)tetrahydro-2H-thiopyran 1,1-dioxide] |
| > 7.00 | > 7.00 | 4.30 to 6.00 | Cc1c(-c2[nH]c3ccc(C4CCN(CCS(C)(=O)=O)CC4)cc3c2C(C)C)cn2nnnc2c1C [Example 786, 6-(3-isopropyl-5-(1-(2-(methylsulfonyl)ethyl)piperidin-4-yl)-1H-indol-2-yl)-7,8-dimethyltetrazolo[1,5-a]pyridine] |
| 4.30 to 6.00 | 6.00 to 7.00 | 4.30 to 6.00 | Cc1cc(-c2[nH]c3ccc(C4CCN(CC(=O)N(C)C)CC4)cc3c2C(C)C)cc2[nH]cnc12 [Example 287, 2-(4-(3-isopropyl-2-(4-methyl-1H-benzo[d]imidazol-6-yl)-1H-indol-5-yl)piperidin-1-yl)-N,N-dimethylacetamide] |
| > 7.00 | > 7.00 | 6.00 to 7.00 | CC(C)c1c(-c2cc(CO)c3nccn3c2)[nH]c2ccc(C3CCN(CC(=O)N(C)C)CC3)cc12 [Example 329, 2-(4-(2-(8-(hydroxymethyl)imidazo [1,2-a]pyridin-6-yl)-3-isopropyl-1H-indol-5-yl)piperidin-1-yl)-N,N-dimethylacetamide] |
| 4.30 to 6.00 | > 7.00 | 6.00 to 7.00 | Cc1ncc(CN2CCC(c3ccc4[nH]c(-c5ccnc6[nH]nc(C)c56)c(C(C)C)c4c3)CC2)[nH]1 [Example 872, 4-(3-isopropyl-5-(1-((2-methyl-1H-imidazol-5-yl)methyl)piperidin-4-yl)-1H-indol-2-yl)-3-methyl-1H-pyrazolo[3,4-b]pyridine] |
| > 7.00 | > 7.00 | 4.30 to 6.00 | CC(C)c1c(-c2ccnc3[nH]ncc23)[nH]c2ccc(C3CCN(C(=O)CN4CCC[C@H]4C(N)=O)CC3)cc12 [Example 584, (S)-1-(2-(4-(3-isopropyl-2-(1H-pyrazolo[3,4-b]pyridin-4-yl)-1H-indol-5-yl)piperidin-1-yl)-2-oxoethyl)pyrrolidine-2-carboxamide] |
| 6.00 to 7.00 | 6.00 to 7.00 | 6.00 to 7.00 | Cc1nc(CN2CCC(c3ccc4[nH]c(-c5ccc6nccn6c5)c(CC(F)F)c4c3)CC2)c[nH]1 [Example 939, 6-(3-(2,2-difluoroethyl)-5-(1-((2-methyl-1H-imidazol-4-yl)methyl)piperidin-4-yl)-1H-indol-2-yl)imidazo[1,2-a]pyridine] |
| > 7.00 | > 7.00 | 4.30 to 6.00 | CC(C)c1c(-c2ccc(C#N)c3ncccc23)[nH]c2ccc(C3CCN(CC(N)=O)CC3)cc12 [Example 369, 2-(4-(2-(8-cyanoquinolin-5-yl)-3-isopropyl-1H-indol-5-yl)piperidin-1-yl)acetamide] |
| > 7.00 | 6.00 to 7.00 | 4.30 to 6.00 | Cc1cc(-c2[nH]c3ccc(C4CCNCC4)cc3c2C(C)C)cc2c1oc(=O)n2C [Example 90, 5-(3-isopropyl-5-(piperidin-4-yl)-1H-indol-2-yl)-3,7-dimethylbenzo[d]oxazol-2(3H)-one] |
| 6.00 to 7.00 | > 7.00 | 4.30 to 6.00 | CCc1c(-c2ccnc3[nH]ncc23)[nH]c2ccc(C3CCN(C(=O)CN)CC3)cc12 [Example 461, 2-amino-1-(4-(3-ethyl-2-(1H-pyrazolo[3,4-b]pyridin-4-yl)-1H-indol-5-yl)piperidin-1-yl)ethan-1-one] |
| > 7.00 | < 5.51 | > 7.00 | Cc1cn2cc(-c3[nH]c4ccc(C5CCN(CC(=O)N(C)C)CC5)cc4c3CC(F)F)ccc2n1 [Example 416, 2-(4-(3-(2,2-difluoroethyl)-2-(2-methylimidazo[1,2-a]pyridin-6-yl)-1H-indol-5-yl)piperidin-1-yl)-N,N-dimethylacetamide] |
| 6.00 to 7.00 | 6.00 to 7.00 | 4.30 to 6.00 | Cc1c(-c2ccnc3[nH]ncc23)[nH]c2ccc(C3CCNCC3)cc12 [Example 231, 4-(3-methyl-5-(piperidin-4-yl)-1H-indol-2-yl)-1H-pyrazolo[3,4-b]pyridine] |
| 4.30 to 6.00 | 4.30 to 6.00 | 4.30 to 6.00 | CC(C)c1c(-c2ccnc3c2NC(=O)CO3)[nH]c2ccc(C3CCNCC3)cc12 [Example 68, 8-(3-isopropyl-5-(piperidin-4-yl)-1H-indol-2-yl)-1H-pyrido[2,3-b][1,4]oxazin-2(3H)-one] |
| < 5.51 | 4.30 to 6.00 | 4.30 to 6.00 | Cc1nn2ccc(-c3[nH]c4ccc(C5CCN(CC(=O)N(C)C)CC5)cc4c3C(C)C)nc2c1F [Example 400, 2-(4-(2-(3-fluoro-2-methylpyrazolo[1,5-a]pyrimidin-5-yl)-3-isopropyl-1H-indol-5-yl)piperidin-1-yl)-N,N-dimethylacetamide] |
